# Assay results from PubChem BioAssay AID192 (DTP/NCI, 2004).
# Several values for one entry are separate records, joined by “and”; a condition that tells them apart may be missing. Identical values can stand only once. Toxic doses and inconclusive results are not listed. Peptide text beside a SMILES is read from it. * marks the point of attachment. Cbz = O=C(OCc1ccccc1)*
# Test system: BDF1 mice, B16 melanoma ip, median survival T/C
# Test: NCI In Vivo Anticancer Drug Screen. Data for tumor model B16 Melanoma (intraperitoneal) in B6D2F1 (BDF1) mice
# Details: endpoint: median survival time, higher = longer survival
# How it was run: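 The ratio T/C compares compound-treated mice with vehicle-treated controls, using survival or tumor size as the endpoint in a transplantable tumor model.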
# [1] = dose: 100.0 mg/kg/injection, schedule: Q04DX003 (ip), vehicle: saline with Tween-80
# [2] = dose: 25.0 mg/kg/injection, schedule: Q01DX009 (ip), vehicle: Klucel (hydroxypropylcellulose) (HPC)
# [3] = dose: 50.0 mg/kg/injection, schedule: Q01DX009 (ip), vehicle: Klucel (hydroxypropylcellulose) (HPC)
# [4] = dose: 100.0 mg/kg/injection, schedule: Q01DX009 (ip), vehicle: Klucel (hydroxypropylcellulose) (HPC)
# [5] = dose: 200.0 mg/kg/injection, schedule: Q01DX009 (ip), vehicle: Klucel (hydroxypropylcellulose) (HPC)
# [6] = dose: 400.0 mg/kg/injection, schedule: Q01DX009 (ip), vehicle: Klucel (hydroxypropylcellulose) (HPC)
# [7] = dose: 100.0 mg/kg/injection, schedule: Q01DX009 (ip), vehicle: saline with Tween-80
# [8] = dose: 3.13 mg/kg/injection, schedule: Q01DX009 (ip), vehicle: saline with Tween-80
# [9] = dose: 6.25 mg/kg/injection, schedule: Q01DX009 (ip), vehicle: saline with Tween-80
# [10] = dose: 12.5 mg/kg/injection, schedule: Q01DX009 (ip), vehicle: saline with Tween-80
# [11] = dose: 25.0 mg/kg/injection, schedule: Q01DX009 (ip), vehicle: saline with Tween-80
# [12] = dose: 50.0 mg/kg/injection, schedule: Q01DX009 (ip), vehicle: saline
# [13] = dose: 100.0 mg/kg/injection, schedule: Q01DX009 (ip), vehicle: saline
# [14] = dose: 200.0 mg/kg/injection, schedule: Q01DX009 (ip), vehicle: saline
# [15] = dose: 50.0 mg/kg/injection, schedule: Q01DX009 (ip), vehicle: saline with Tween-80
# [16] = dose: 200.0 mg/kg/injection, schedule: Q01DX009 (ip), vehicle: saline with Tween-80
smiles,measurement,setting,value
O=Cc1ccc(C(=O)O)cc1,T/C,[1],93 % of control
same,T/C,"dose: 200.0 mg/kg/injection, schedule: Q04DX003 (ip), vehicle: saline with Tween-80",93 % of control
same,T/C,"dose: 400.0 mg/kg/injection, schedule: Q04DX003 (ip), vehicle: saline with Tween-80",86 % of control
C=CCN(C)N=Nc1ccc(C(N)=O)cc1,T/C,[2],105 % of control
same,T/C,[3],110 % of control
same,T/C,[4],107 % of control
ClC1OC(Cl)(Cl)C(Cl)(Cl)OC1(Cl)Cl (configuration not stated),T/C,[4],93 % of control
same,T/C,[5],93 % of control
same,T/C,[6],86 % of control
O=C(O)CNC(=O)c1ccc([N+](=O)[O-])cc1,T/C,[7],89 % of control
ClC(Cl)(Cl)C(Nc1ccccc1)Nc1ccccc1,T/C,"dose: 6.25 mg/kg/injection, schedule: Q01DX009 (ip), vehicle: Klucel (hydroxypropylcellulose) (HPC)",89 % of control
same,T/C,[2],86 % of control
COc1ccc(NCc2ccc(C)cc2)cc1,T/C,[4],91 % of control
same,T/C,[5],94 % of control
same,T/C,[6],91 % of control
Cn1c2ccccc2c(=O)c2ccc(Cl)cc21,T/C,[2],97 % of control
same,T/C,[3],97 % of control
same,T/C,[4],91 % of control
N#CSCc1ccccc1Cl,T/C,"dose: 1.56 mg/kg/injection, schedule: Q04DX003 (ip), vehicle: saline",89 % of control
same,T/C,[8],105 % of control
same,T/C,"dose: 3.13 mg/kg/injection, schedule: Q04DX003 (ip), vehicle: saline",89 % of control
same,T/C,[9],105 % of control
same,T/C,"dose: 6.25 mg/kg/injection, schedule: Q04DX003 (ip), vehicle: saline with Tween-80",88 % of control
same,T/C,"dose: 6.25 mg/kg/injection, schedule: Q04DX003 (ip), vehicle: saline",86 % of control
same,T/C,[10],114 % of control
OC(COC(c1ccccc1)(c1ccccc1)c1ccccc1)C(O)CC1SCCS1 (configuration not stated),T/C,[8],107 % of control
same,T/C,[9],100 % of control
same,T/C,[10],103 % of control
same,T/C,[11],104 % of control
Cn1c(=O)c2c(ncn2C)n(C)c1=O,T/C,[12],116 % of control
same,T/C,[13],103 % of control
same,T/C,[14],109 % of control
C[NH-].C[NH-].C[NH-].C[NH-].[Cl][Rh][Cl],T/C,[2],114 % of control
same,T/C,[3],120 % of control
same,T/C,[4],105 % of control
O=C(NC(Cc1ccccc1)C(=O)N1CCCC1C(=O)O)OCc1ccccc1 (stereo not drawn) (Cbz-Phe-Pro-OH; configuration not given here),T/C,[15],99 % of control
same,T/C,[7],99 % of control
same,T/C,[16],91 % of control
COc1ccc(COC=O)cc1,T/C,[4],100 % of control
same,T/C,[5],109 % of control
same,T/C,[6],106 % of control
Cc1noc2nccnc12,T/C,[10],92 % of control
same,T/C,[11],95 % of control
same,T/C,[15],88 % of control
CC(=O)OCC(CCC(C)C)=C(C)C,T/C,"dose: 25.0 mg/kg/injection, schedule: Q04DX003 (ip), vehicle: saline with Tween-80",104 % of control
same,T/C,"dose: 50.0 mg/kg/injection, schedule: Q04DX003 (ip), vehicle: saline with Tween-80",104 % of control
same,T/C,[7],97 % of control
same,T/C,[1],86 % of control and 97 % of control
same,T/C,[16],104 % of control
CN(Cc1cnc2nc(N)nc(N)c2n1)c1ccc(C(=O)NC(CCC(=O)O)C(=O)O)cc1Br (configuration not stated),T/C,"dose: 0.17 mg/kg/injection, schedule: Q01DX011 (ip), vehicle: saline",101 % of control
same,T/C,"dose: 0.35 mg/kg/injection, schedule: Q01DX011 (ip), vehicle: saline",105 % of control
same,T/C,"dose: 0.63 mg/kg/injection, schedule: Q01DX009 (ip), vehicle: other",101 % of control
same,T/C,"dose: 0.7 mg/kg/injection, schedule: Q01DX011 (ip), vehicle: saline",101 % of control
same,T/C,"dose: 1.25 mg/kg/injection, schedule: Q01DX009 (ip), vehicle: other",113 % of control
CCOC(=O)C1C2OC(=O)C(C(=O)C2CN(CCCl)CCCl)C1C1CC=C(CC2=CCC(C3C4C(=O)OC(C(CN(CCCl)CCCl)C4=O)C3C(=O)OCC)CC2)CC1 (configuration not stated),T/C,"dose: 12.5 mg/kg/injection, schedule: Q01DX009 (ip), vehicle: Klucel (hydroxypropylcellulose) (HPC)",107 % of control
same,T/C,[10],113 % of control
same,T/C,[2],118 % of control
same,T/C,[11],119 % of control
same,T/C,[15],150 % of control
same,T/C,[4],153 % of control
same,T/C,[7],174 % of control
COc1ccc2c(=O)c(C)c(-c3ccccc3)oc2c1CN(C)C,T/C,"dose: 0.19 mg/kg/injection, schedule: Q01DX009 (ip), vehicle: saline",95 % of control
same,T/C,"dose: 0.39 mg/kg/injection, schedule: Q01DX009 (ip), vehicle: saline",103 % of control
same,T/C,"dose: 0.78 mg/kg/injection, schedule: Q01DX009 (ip), vehicle: saline",100 % of control
same,T/C,"dose: 1.56 mg/kg/injection, schedule: Q01DX009 (ip), vehicle: saline",96 % of control
N#Cc1ccc(/C=C/C(=O)c2ccccc2)cc1,T/C,[4],101 % of control
same,T/C,[5],101 % of control
COc1cc(OC)c(NC(=O)c2ccccc2Cl)cc1Cl,T/C,[4],97 % of control
same,T/C,[5],102 % of control
same,T/C,[6],102 % of control
CO[C@@]12[C@@H]3N[C@@H]3CN1C1=C(C(=O)C(NCc3ccco3)=C(C)C1=O)[C@@H]2COC(N)=O,T/C,"dose: 0.13 mg/kg/injection, schedule: Q01DX001 (ip), vehicle: distilled water + Tween-80",96 % of control
same,T/C,"dose: 0.25 mg/kg/injection, schedule: Q01DX001 (ip), vehicle: distilled water + Tween-80",101 % of control
same,T/C,"dose: 0.5 mg/kg/injection, schedule: Q01DX001 (ip), vehicle: distilled water + Tween-80",111 % of control
same,T/C,"dose: 1.0 mg/kg/injection, schedule: Q01DX001 (ip), vehicle: distilled water + Tween-80",123 % of control
same,T/C,"dose: 6.0 mg/kg/injection, schedule: Q04DX003 (ip), vehicle: distilled water + Tween-80",205 % of control
same,T/C,"dose: 12.0 mg/kg/injection, schedule: Q04DX003 (ip), vehicle: distilled water + Tween-80",305 % of control
same,T/C,"dose: 24.0 mg/kg/injection, schedule: Q04DX003 (ip), vehicle: distilled water + Tween-80",315 % of control
CC(=O)CC(=O)N1CCCCC1C (configuration not stated),T/C,[4],109 % of control
same,T/C,[5],112 % of control
same,T/C,[6],110 % of control
Cc1c(Cl)cccc1NC(=O)C(c1ccccc1)c1ccccc1,T/C,[11],99 % of control
same,T/C,[15],86 % of control
same,T/C,[7],91 % of control
Nc1ncnc2c(C3OC(CO)C(O)C3O)[nH]nc12 (configuration not stated),T/C,"dose: 1.0 mg/kg/injection, schedule: Q01DX009 (ip), vehicle: saline",113 % of control
same,T/C,"dose: 2.0 mg/kg/injection, schedule: Q01DX009 (ip), vehicle: saline",122 % of control
same,T/C,"dose: 4.0 mg/kg/injection, schedule: Q01DX009 (ip), vehicle: saline",122 % of control
same,T/C,"dose: 8.0 mg/kg/injection, schedule: Q01DX009 (ip), vehicle: saline",107 % of control
NC(N)=NCCCC(N)C(=O)NC(CCC(=O)O)C(=O)O (stereo not drawn) (H-Arg-Glu-OH; configuration not given here),T/C,"dose: 25.0 mg/kg/injection, schedule: Q01DX009 (ip), vehicle: saline",108 % of control
same,T/C,[12],96 % of control
same,T/C,[13],104 % of control
same,T/C,[14],102 % of control
same,T/C,"dose: 400.0 mg/kg/injection, schedule: Q01DX009 (ip), vehicle: saline",101 % of control
Nc1ncnc2c1c(C(=O)O)cn2C1OC(CO)C(O)C1O (configuration not stated),T/C,[10],91 % of control
same,T/C,[11],93 % of control
same,T/C,[15],96 % of control
Cn1c(O)c(C=N)c(=O)[nH]c1=O,T/C,"dose: 75.0 mg/kg/injection, schedule: Q01DX009 (ip), vehicle: Klucel (hydroxypropylcellulose) (HPC)",90 % of control
same,T/C,"dose: 300.0 mg/kg/injection, schedule: Q01DX009 (ip), vehicle: Klucel (hydroxypropylcellulose) (HPC)",90 % of control
